According to patent publication US20230106238A1, “PHARMACEUTICAL COMPOSITION FOR PREVENTING OR TREATING NK/T-CELLLYMPHOMA OR NK-CELL LEUKEMIA, COMPRISING PHOSPHODIESTERASE TYPE 5 INHIBITOR” (SAMSUNG LIFE PUBLIC WELFARE FOUNDATION, priority 2020, published 2023):

How the values were obtained:
Format in all cases: cell-based
[1] = test system: Epstein-Barr virus (EBV) reactivation in NK/T-cell lymphoma cell line SNK6; assay: EBV reactivation by romidepsin in SNK6 cells (real-time PCR of BZLF1/BRLF1 mRNA, EBV copy number)
Description: (§1) The NK/T-cell lymphoma cell line SNK6 (source; Seoul National University) and the NK-cell leukemia cell line NK92MI (source; Seoul National University) were treated with the HDAC inhibitor, romidepsin 10 nM, and the PDE5 inhibitor, sildenafil 100 nM, for 24, 48, and 72 hours. After treatment, cells were harvested […]. Then, RNA was extracted using TRIzol reagent (Ambion, Life technologies), cDNA synthesis was performed using Omniscript RT kit (Qiagen), and the expression of BZLF1, an mRNA expressed during EBV reactivation, was identified through real-time PCR. The group treated with DMSO only was used as a control group.
(§2) BZLF1 mRNA expression was measured in the same manner as in Example 1, with a group treated with sildenafil alone and a group treated with 10 nM of romidepsin simultaneously at a concentration of sildenafil of 10, 100 or 1000 nM in SNK6 and NK92MI cells as experimental groups. The treatment time was 72 hours.
(§3) The inhibition of EBV reactivation by sildenafil (100 nM, 72 hours), which was shown by treatment with 10 nM of romidepsin in SNK6 and NK92MI cell lines for 72 hours, was measured through EBV copy number, BALF5, BZLF1, and BRLF1 expression. In addition, cell growth was measured by counting live cells through trypan blue staining. BALF5 is a gene with the function of generating viral DNA produced through EBV reactivation. DNA was extracted from the medium using QIAamp DNA mini kit (Qiagen) and real-time quantitative PCR was performed to measure […]. […] The results of measuring the number of EBV copies in the SNK6 cells identified as described above are shown in FIG. 5A, the expression of BZLF1 mRNA is shown in FIG. 5B, the expression of BRLF1 mRNA is shown in FIG. 5C, and the survival rate of tumor cells is shown in FIG. 5D. In addition, the expression of BRLF5 mRNA in NK92MI cells is shown in FIG. 6A, the expression of BZLF1 mRNA is shown in FIG. 6B, the expression of BRLF1 mRNA is shown in FIG. 6C, and the survival rate of tumor cells is shown in FIG. 6D.
BZLF1 and BRLF1 mRNA expressions were identified and measured by qPCR in the same manner as in Example 3.1 that EBV reactivation, which was shown by treatment of 10 nM of romidepsin in the SNK6 cell line, was inhibited by the PDE5 inhibitors of vardenafil, udenafil or tadalafil. In this connection, vardenafil was treated with 100 nM for 72 hours, udenafil was treated with 100 nM for 48 hours, and tadalafil was treated with 1000 nM for 24 hours. The expression of BZLF1 mRNA in the vardenafil-administered group is shown in FIG. 7A, and the expression of BRLF1 mRNA is shown in FIG. 7B. In addition, the expression of BZLF1 mRNA in the udenafil-administered experimental group is shown in FIG. 7C, and the expression of BRLF1 mRNA is shown in FIG. 7D. In addition, the expression of BZLF1 mRNA in the tadalafil-administered experimental group is shown in FIG. 7E, and the expression of BRLF1 mRNA is shown in FIG. 7F.

[2] = test system: Epstein-Barr virus (EBV) reactivation in 1A2 cell line (lymphoma); assay: EBV reactivation by romidepsin in 1A2 cell line (BZLF1/BRLF1 mRNA); conditions: romidepsin 1 or 10 nM, 72 hours
Description: (§4) EBV-positive cell lines other than SNK6 and NK92MI were collected to identify EBV reactivity by romidepsin and the effect of sildenafil. As EBV-positive cell lines, the Daudi cell line (ATCC, CCL-213) and Raji cell line (ATCC, CCL-86), which are Burkitt's lymphoma cells, and the 1A2 cell line (ATCC, CRL-8119), which is a lymphoma cell, were treated with 1 or 10 nM of romidepsin for 72 hours, and mRNA expression of BZLF1 and BRLF1, genes whose expression is increased in EBV reactivation, was identified. The results for BZLF1 mRNA expression of the Daudi cell line are shown in FIG. 3A, and the results for BRLF1 mRNA expression are shown in FIG. 3B. In addition, the results for BZLF1 mRNA expression of the Raji cell line are shown in FIG. 3C, and the results for BRLF1 mRNA expression are shown in FIG. 3D. In addition, the results for BZLF1 mRNA expression of the 1A2 cell line are shown in FIG. 3E, and the results for BRLF1 mRNA expression are shown in FIG. 3F.

[3] = test system: Epstein-Barr virus (EBV) reactivation in Daudi cell line (Burkitt's lymphoma); assay: EBV reactivation by romidepsin in Daudi cell line (BZLF1/BRLF1 mRNA, EBV copy number); conditions: sildenafil 100 nM + romidepsin 10 nM simultaneously, 72 hours, versus romidepsin alone
Description: as §4
When sildenafil and romidepsin were simultaneously treated in the Daudi cell line, which is a cell line showing EBV reactivation by romidepsin identified in Example 3.1, an experiment was performed to determine whether EBV reactivation by romidepsin was inhibited. In the Daudi cell line, a group treated with 10 nM of romidepsin and 100 nM of sildenafil separately for 72 hours and a group treated therewith simultaneously were used as experimental groups, and a group treated with DMSO only was used as a control group. In order to measure the EBV copy number secreted out of the cell by EBV reactivation, by extracting DNA from the medium and measuring the Ct value by real-time PCR and comparing the same with the reference EBV number, the EBV copy number was measured and shown in FIG. 4A. In the same manner as in Example 3.1, BZLF1 mRNA expression was measured and shown in FIG. 4B, and BRLF1 mRNA was measured and shown in FIG. 4C.

NK92MI cells = assay: Cell growth/viability by counting live cells through trypan blue staining, NK92MI; conditions: sildenafil 100 nM + romidepsin 10 nM, 72 hours; versus romidepsin alone
Description: as §3

[4] = test system: Epstein-Barr virus (EBV) reactivation in NK-cell leukemia cell line NK92MI; assay: EBV reactivation by romidepsin in NK92MI cells (real-time PCR of BZLF1/BRLF1/BALF5); conditions: 72 hours
Description: as §1, §2, §3

SNK6 cells = assay: Cell growth/viability by counting live cells through trypan blue staining, SNK6; conditions: sildenafil 100 nM + romidepsin 10 nM, 72 hours; versus romidepsin alone
Description: as §3

[5] = SNK6 cell line, udenafil 100 nM for 48 hours with romidepsin 10 nM
[6] = SNK6 cell line, sildenafil 100 nM + romidepsin 10 nM, 72 hours, versus romidepsin alone
[7] = NK92MI cell line, sildenafil 100 nM + romidepsin 10 nM, versus romidepsin alone

How did the “BRLF1 mRNA expression” value [1, 5] turn out when `CCCOc1ccc(S(=O)(=O)NCCC2CCCN2C)cc1-c1nc2c(CCC)nn(C)c2c(=O)[nH]1` (centres unmarked) [udenafil] was run?
The value was “decreased”.

And the “BZLF1 mRNA expression” value [1, 5]?
The value was “decreased”.

For `C/C=C1\NC(=O)[C@H]2CSSCC/C=C/[C@H](CC(=O)N[C@H](C(C)C)C(=O)N2)OC(=O)[C@H](C(C)C)NC1=O` [romidepsin], which “expression of BRLF1 mRNA” value [2] is on record?
Its value is “increased”.

And the “expression of BZLF1 mRNA” value [2]?
The value was “only the expression of BRLF1 was increased”.

`CCCc1nn(C)c2c(=O)[nH]c(-c3cc(S(=O)(=O)N4CCN(C)CC4)ccc3OCC)nc12` [sildenafil] was tested. Which “EBV copy number (DNA from the medium)” value [3] did it give?
Its value is “no significant difference”.

And the “expression of BRLF1 mRNA” value [3]?
Its value is “no significant difference”.

What about the “expression of BZLF1 mRNA” value [3] of the same molecule?
Its value is “no significant difference”.

What about the EBV copy number [1, 6] of the same molecule?
Its EBV copy number is “decreased”.

And the “expression of BRLF1 mRNA” value [1, 6]?
Its value is “decreased”.

And the “expression of BZLF1 mRNA” value ([1]; SNK6 cells, sildenafil 100 nM together with romidepsin 10 nM, 72 hours, compared to romidepsin alone)?
Its value is “significantly decreased”.

And the “inhibition of EBV reactivation by romidepsin (BZLF1 mRNA expression)” value ([1]; SNK6 cells, sildenafil 10, 100 or 1000 nM in combination with romidepsin 10 nM, 72 hours)?
Its value is “the effect of inhibiting the reactivation of EBV by romidepsin was observed”.

And the “viability of the NK92MI cell line (trypan blue)” value (NK92MI cells)?
The value was “decreased”.

And the “expression of BALF5” value [4, 7]?
Its value is “decreased”.

What about the “expression of BRLF1 mRNA” value [4, 7] of the same molecule?
Its value is “decreased”.

What about the “expression of BZLF1 mRNA” value ([4]; NK92MI cells, sildenafil 100 nM together with romidepsin 10 nM, compared to romidepsin alone) of the same molecule?
Its value is “significantly decreased”.

What about the “inhibition of EBV reactivation by romidepsin (BZLF1 mRNA expression)” value ([4]; NK92MI cells, sildenafil 10, 100 or 1000 nM in combination with romidepsin 10 nM) of the same molecule?
Its value is “the effect of inhibiting the reactivation of EBV by romidepsin was observed”.

And the “viability of the SNK6 cell line (trypan blue)” value (SNK6 cells)?
Its value is “decreased”.
